Patent US20120088827A1 (Profectus Biosciences, Inc., priority 2009, published 2012)
Where two headings read alike, the source gives them in different places.

Columns and labels:
[1] = test system: NF-κB driven transcription (pTRH1-NF-κB-dscGFP reporter, 293 cells); assay: NF-kB/293/GFP reporter cell assay; assay type: cell-based; settings: Homo sapiens, HEK293; compound 2 hours, then 20 ng/ml TNF-α for 18 hours; fluorescence
Protocol: (§1) Two reporter cell assays were used to determine the ability of the compounds of Examples 1-12 to inhibit NF-κB driven transcription. The first assay was a 293-cell based assay with a stably integrated pNF-κB-luc reporter plasmid containing 3 NF-κB promoter elements. The second assay was a 293-cell based assay with a stably integrated pTRH1-NF-κB-dscGFP reporter containing 4 NF-κB promoter elements. Cells were treated with 0, 0.2, 1, 10, 20 and 40 μM of the compounds of Example 1-12 for 2 hours then were induced with 20 ng/ml TNF-α for 18 hours. Following the induction, luminescence or fluorescence was quantified using a Beckman-Coulter 2300 plate reader. […] As a control, 0.5% DMSO treated and untreated cells were compared to verify that the compounds of Examples 1-12 had no effect on the expression of luciferase or in the readout of the assay. There was a slight decrease in the output from the assay in the DMSO treated population although it was not statistically significant. As a result of the controls, the decrease in activity in the drug treated samples was compared to the DMSO control sample.

[2] = test system: NF-κB driven transcription (pNF-κB-luc reporter, 293 cells); assay: 293/NF-kB-luc reporter cell assay; assay type: cell-based; settings: Homo sapiens; compound 2 hours, then 20 ng/ml TNF-α for 18 hours; luminescence
Protocol: as §1

IL-6 = assay: Inhibition of IL-6 release in LPS-stimulated RAW 264.7 cells; assay type: cell-based; settings: Mus musculus, RAW264.7; pretreated 2 hours, 1 μg/mL LPS 20-24 hours
Protocol: RAW 264.7 cells were seeded at 4×10^4 cells per well in complete growth medium in 96 well white TC plates with clear bottoms one day prior to the assay. The next day the cells were washed once and 100 μL fresh growth media was added. Cells were pretreated with 0.5 μL from a 6 point 200× dilution series of the test compounds in DMSO for 2 hours. Following pretreatment with the drugs, the inflammatory response was induced by adding 5 μL of a 20 μg/mL solution of LPS (Sigma). The cells were incubated in the presence of the drugs and 1 μg/mL LPS for another 20-24 hours. Typically after treatment the total DMSO was […] of the culture volume and the final concentrations of the compounds were approximately: 40, 20, 10, 1, 0.2 and 0 μM depending on the MW of each compound. Modified dilution series were prepared as needed to get adequate dose response curves without changing the % DMSO. Samples were run in duplicate or triplicate and included DMSO treated control wells with and without LPS stimulation. Drugs with a known activity such as Parthenolide or DHMEQ were run as experimental controls. After 20-24 hours LPS activation, the media supernatant was collected from the cells and replaced with fresh media. The supernatant samples were cleared by centrifugation at 1,000×g for 5 minutes, transferred to fresh storage plates, and stored frozen at −30° C.
After determining the appropriate supernatant dilutions experimentally, mIL-6 levels in the supernatants were quantified using Quantikine™ mouse IL-6 Immunoassay (R&D Systems) according to the manufacturer's protocol. Approximately 50 μL of the supernatants diluted in Calibrator Diluent were added to 50 μL of Assay Diluent in microplate wells pre-coated with an anti-mouse IL-6 capture antibody. Controls included a calibrated positive IL-6 control sample, non-specific binding (NSB) wells containing Calibrator Diluent but no IL-6, and a recombinant mouse IL-6 standard dilution series (10-1000 pg/mL). The plates were incubated at room temperature for 2 hours with shaking and then washed 5 times with 400 μL 1× Wash Buffer. Approximately 100 μL of an HRP-conjugated anti-mouse IL-6 antibody was added to each well to detect IL-6 captured on the plate. The plates were incubated at room temperature for 2 hours and then washed 5 times with 400 μl 1× Wash Buffer. Equal volumes of Color Reagents A and B were mixed and 100 μL of this HRP Substrate Solution was added to each well on the plate. The blue color was allowed to develop for 30 minutes and then the reaction was stopped using 100 μL of Stop Solution yielding a yellow color. Absorbance at 450 nm with a reference wavelength subtracted at 595 nm was recorded using a Becton-Dickinson DTX 880 Multimode Detector.
The concentration of mIL-6 in the unknown samples was determined from a curve-fit of the mIL-6 standard absorbance data and multiplying by the dilution factor. The maximum activity achieved in the absence of the inhibitor (DMSO+LPS treated wells) was arbitrarily given a value of 100%; likewise the minimum activity in the absence of the stimulant (no LPS) was assigned a value of 0% Inhibition of the amount of mIL-6 cytokine released in the drug treated wells was calculated relative to the maximum activation in the DMSO+LPS treated control wells (i.e., % inhibition=100−(drug+LPS treated)/(DMSO+LPS treated)). Dose response curves were used to determine the effective concentration to inhibit 50% of the mIL-6 cytokine released (IC50) by means of a SigmaPlot macro which fits a sigmoidal dose-response curve to the (log 10) μM concentration versus % inhibition. […] This technique yields an objective value for the IC50 provided that 50% inhibition was approached at the concentrations tested.

NF-κB p65 = biological target: T1, NF-κB p65 (Homo sapiens, UniProt Q04206); assay: TransAM NF-κB Family DNA Binding ELISA, p65
T1 construct: purchased Active Motif
Protocol: The binding activity of NF-κB heterodimer or homodimer subunits from activated nuclear extracts or purified recombinant NF-κB proteins exposed to the drug compounds was evaluated using the TransAM NF-κB Family binding ELISA (Active Motif). Approximately 3-5 μg of nuclear extracts from TNFα activated Hela or Raji cells (Active Motif) or 20 ng of purified recombinant proteins (p65 and p50 from Active Motif, p52 from Santa Cruz) were incubated for 1 hour at room temperature with 20 μL drug compounds diluted in Complete Lysis buffer without DTT. Treated samples were then transferred to 30 μL Complete Binding Buffer (with DTT) in microplate wells pre-coated with the NF-κB consensus oligonucleotide. […] The plate was incubated for 1 hour at room temperature with gentle shaking and then washed 3 times with 200 μL 1× Wash Buffer. NF-κB p65, p50, p52, RelB, or c-Rel subunits bound to the plate were detected with 100 μL of the primary antibody (diluted 1:1000 in 1× Antibody Buffer) specific for that subunit. The plate was incubated for 1 hour at room temperature and then washed 3 times with 200 μL 1× Wash Buffer. Next, 100 μL of a HRP conjugated goat anti-rabbit antibody (diluted 1:1,000 in 1× Antibody Buffer) was added to each well. The plate was incubated for 1 hour at room temperature and then washed 4 times with 200 μL 1× Wash Buffer. 100 μL of room temperature Developing Solution was added to each well. The reaction was allowed to develop for 2-10 minutes until a medium dark blue color developed (depending on the subunit activity in the lot of extract or lot of recombinant protein used) and then the reaction was stopped with 100 μL Stop Solution yielding a yellow color. Absorbance was recorded using a Becton-Dickinson DTX 880 Multimode Detector at 450 nm with a reference wavelength subtracted at 620 nm.

[3] = binding to NF-κB consensus oligonucleotide, read-out: p65 binding IC50

T1 sequence (Q04206 whole entry): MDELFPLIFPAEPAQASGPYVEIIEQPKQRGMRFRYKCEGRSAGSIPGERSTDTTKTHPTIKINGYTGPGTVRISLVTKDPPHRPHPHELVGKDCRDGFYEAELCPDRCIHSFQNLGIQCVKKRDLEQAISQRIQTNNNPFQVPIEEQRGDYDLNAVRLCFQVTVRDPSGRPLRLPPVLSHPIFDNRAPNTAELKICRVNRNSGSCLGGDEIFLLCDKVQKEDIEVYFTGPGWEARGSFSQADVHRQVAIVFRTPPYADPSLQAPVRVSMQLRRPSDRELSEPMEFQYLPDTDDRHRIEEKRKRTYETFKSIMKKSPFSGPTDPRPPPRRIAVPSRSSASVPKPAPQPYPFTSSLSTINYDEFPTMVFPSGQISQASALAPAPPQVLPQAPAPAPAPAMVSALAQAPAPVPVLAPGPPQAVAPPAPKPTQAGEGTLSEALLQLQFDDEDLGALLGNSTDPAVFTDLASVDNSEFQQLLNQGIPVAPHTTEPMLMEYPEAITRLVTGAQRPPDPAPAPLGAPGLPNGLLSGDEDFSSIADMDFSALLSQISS

| Compound | EC50 [1] [µM] | EC50 [2] [µM] | EC50 (IL-6) [µM] | IC50 (NF-κB p65; [3]) [µM] | IC50 (NF-κB p65) [µM] |
| --- | --- | --- | --- | --- | --- |
| CC(C)(C)CC(=O)Oc1ccccc1C(=O)NC1=CC(=O)C2OC2C1OC(=O)CC(C)(C)C (racemic) [Example 9, (±)-2-(2-(3,3-dimethylbutanoyloxy)-5-oxo-7-oxabicyclo[4.1.0]hept-3-en-3-ylcarbamoyl)phenyl 3,3-dimethylbutanoate] | 16 | 15 | 1.4 | 116 |  |
| CCOP(=O)(OCC)Oc1ccccc1C(=O)NC1=CC(=O)C2OC2C1O (racemic) [Example 10, (±)-diethyl 2-(2-hydroxy-5-oxo-7-oxabicyclo[4.1.0]hept-3-en-3-ylcarbamoyl)phenyl phosphate] | 13 | 24 | 6 |  | 59 |
| O=C(Nc1ccccc1)OC1C(NC(=O)c2ccccc2O)=CC(=O)C2OC21 (racemic) [Example 11, (±)-3-(2-hydroxybenzamido)-5-oxo-7-oxabicyclo[4.1.0]hept-3-en-2-yl phenylcarbamate] | 4.3 | 3.3 | 0.87 | 7.3 |  |
| O=C(NC1=CC(=O)C2OC2C1O)c1ccccc1OP(=O)(OCc1ccccc1)OCc1ccccc1 (racemic) [Example 12, (±)-dibenzyl 2-(2-hydroxy-5-oxo-7-oxabicyclo[4.1.0]hept-3-en-3-ylcarbamoyl)phenyl phosphate] | > 26 | > 26 | > 26 | > 320 |  |
